Patent US20120022142A1, “RNA Interference Mediated Inhibition of Signal Transducer and Activator of Transcription 1 (STAT1) Gene Expression Using Short Interfering Nucleic Acid (siNA)” (Merck Sharp & Dohme Corp., priority 2009, published 2012)
[invAb] = inverted abasic unit; d = 2'-deoxy (DNA); m = 2'-O-methyl; r = 2'-OH (RNA); f = 2'-fluoro

Tests used:
STAT1 human mRNA = assay: Initial screen of siNAs: STAT1 mRNA knock-down in A549 cells (96-well transfection, Taqman RT-PCR); assay type: cell-based; conditions: 10 nM siNA, 24 hrs, normalized against GAPDH, average of 2 experiments
Protocol: A549 (human; ATCC cat# CCL-185): Cells were cultured at 37° C. in the presence of 5% CO2 and grown in Ham's F12K medium with 2 mM L-glutamine adjusted to contain 1.5 g/L sodium bicarbonate and supplemented with fetal bovine serum at a final concentration of 10% and 100 μg/mL of streptomycin and 100 U/mL penicillin.
(§1) Cells were plated in all wells of a tissue-culture treated, 96-well plate at a final count of 5000 cells/well in 100 μL of the appropriate culture media. The cells were cultured for 24 hours after plating at 37° C. in the presence of 5% CO2.
(§2) After 24 hours, complexes containing siNA and RNAiMax were created as follows: A solution of RNAiMax diluted 33-fold in OPTI-MEM was prepared. In parallel, solutions of the siNAs for testing were prepared to a final concentration of 120 nM in OPTI-MEM. After incubation of RNAiMax/OPTI-MEM solution at room temperature for 5 min, an equal volume of the siNA solution and the RNAiMax solution were added together for each of the siNAs.
(§3) This solution was incubated at room temperature for 20 minutes. After incubation, 20 uL of the solution was added to each of the relevant wells. The final concentration of siNA in each well was 10 nM and the final volume of RNAiMax in each well was 0.3 ul.
(§4) The time of incubation with the RNAiMax-siNA complexes was 24 hours and there was no change in media between transfection and harvesting, unless otherwise indicated.
(§5) RNA was extracted from a 96-well plate using the TaqMan® Gene Expression Cells-to-CT™ Kit (Cat# 4399002) with a modified protocol. Briefly, a 60 uL (1 plate) or 110 uL (2 plates) of the Lysis Solution with DNase I was dispensed into each well of the Lysis Buffer Plate (twin.tec full skirt plate). The lysis buffer and stop plates were stored at 4° C. until the cells were washed.
(§6) The culture medium was aspirated and discarded from the wells of the culture plate. 50 uL of chilled DPBS was added to each well, then aspirated and discarded. The lysis was performed automatically using a BioMek FX instrument and method. After the Biomek method was completed, the lysis plate was incubated for 2 min at room temperature. The lysis plate can be stored for 2 hours at 4° C., or at −20° C. or −80° C. for two months.
(§7) Each well of the reverse transcription plate required 10 uL of 2× reverse transcriptase Buffer, 1 uL of 20× reverse transcription enzyme and 2 uL of nuclease-free water. The reverse transcription master mix was prepared by mixing 2× reverse transcription buffer, 20× reverse transcription enzyme mix, and nuclease-free water. 13 uL of the reverse transcription master mix was dispensed into each well of the reverse transcription plate (semi-skirted). A separate reverse transcription plate was prepared for each cell plate. The plate was loaded onto a Biomek NX or Biomek FX Dual-96 and the Biomek method was run. The program is programmed to automatically added 7 uL of lysate from the cell lysis procedure described above into each well of the reverse transcription plate. The plate is sealed and spun on a centrifuge (1000 rpm for 30 seconds) to settle the contents to the bottom of the reverse transcription plate. The plate is placed in a thermocycler at 37° C. for 60 min, 95° C. for 5 min, and 4° C. until the plate is removed from the thermocycler. Upon removal, if not used immediately, the plate was frozen at −20° C.
(§8) A series of probes and primers were used to detect the various mRNA transcripts of the genes of β-Actin (human cell line only), and of STAT1 and GAPDH in mouse and human cell lines. All Taqman probes and primers for the experiments here-in described were supplied as pre-validated sets by Applied Biosystems, Inc. (see Table 2).
The assays were performed on an ABI 7900 instrument, according to the manufacturer's instructions.
Within each experiment, the baseline was set in the exponential phase of the amplification curve, and based on the intersection point of the baselines with the amplification curve, a Ct value was assigned by the instrument. […]

STAT1 mouse mRNA = assay: Initial screen of siNAs: STAT1 mRNA knock-down in NIH 3T3 cells (96-well transfection, Taqman RT-PCR); assay type: cell-based; conditions: 10 nM siNA, 24 hrs, normalized against GAPDH, average of 2 experiments
Protocol: NIH 3T3 (mouse; ATCC cat# CRL-1658): Cells were cultured at 37° C. in the presence of 5% CO2 and grown in Dulbecco's modified Eagle's medium (DMEM) with 4 mM L-glutamine adjusted to contain 1.5 g/L sodium bicarbonate and 4.5 g/L glucose and supplemented with fetal bovine serum at a final concentration of 10%, 100 μg/mL of streptomycin, and 100 U/mL penicillin.
as §1, §2, §3, §4, §5, §6, §7, §8
The assays were performed on an ABI 7900 instrument, according to the manufacturer's instructions. […]

For “25360-DC: STAT1 siNA duplex, human target site 1793; modified strands SEQ ID NO: 57 and 58 (chain 1 CCAGGAAUCUGUCCUUCUUTT; chain 2 AAGAAGGACAGAUUCCUGGUU; chain 1: DNA at AGT, 2'-fluoro at CU, [invAb] at 5' end, 3' end, backbone not given here; chain 2: sugars from the 5' end rrrmmmmmfmmmfffffmmmm, backbone not given here)”, the “% KD Human” value (STAT1 human mRNA) was 90% and the “% KD Mouse” value (STAT1 mouse mRNA) was 73%.
For “25361-DC: STAT1 siNA duplex, human target site 1104; modified strands SEQ ID NO: 59 and 60 (chain 1 GCCCAAUGCUUGCUUGGAUTT; chain 2 AUCCAAGCAAGCAUUGGGCUU; chain 1: DNA at AGT, 2'-fluoro at CU, [invAb] at 5' end, 3' end, backbone not given here; chain 2: sugars from the 5' end rrrfmmmfmmmfmffmmmfmm, backbone not given here)”, the “% KD Human” value (STAT1 human mRNA) was 92% and the “% KD Mouse” value (STAT1 mouse mRNA) was 35%.
With “25373-DC: STAT1 siNA duplex, human target site 2160; modified strands SEQ ID NO: 83 and 84 (chain 1 CAGUGAGAGCUCCCGGGAATT; chain 2 UUCCCGGGAGCUCUCACUGUU; chain 1: DNA at AGT, 2'-fluoro at CU, [invAb] at 5' end, 3' end, backbone not given here; chain 2: sugars from the 5' end rrrffmmmmmfffffmffmmm, backbone not given here)” the “% KD Human” value (STAT1 human mRNA) was 30% and the “% KD Mouse” value (STAT1 mouse mRNA) was 24%.
In the case of “25348-DC: STAT1 siNA duplex, human target site 746; modified strands SEQ ID NO: 33 and 34 (chain 1 GCACAGUGAUGUUAGACAATT; chain 2 UUGUCUAACAUCACUGUGCUU; chain 1: DNA at AGT, 2'-fluoro at CU, [invAb] at 5' end, 3' end, backbone not given here; chain 2: sugars from the 5' end rrrfffmmfmffmffmfmfmm, backbone not given here)”, the “% KD Human” value (STAT1 human mRNA) is reported as 51% and the “% KD Mouse” value (STAT1 mouse mRNA) is reported as 37%.
For “25349-DC: STAT1 siNA duplex, human target site 185; modified strands SEQ ID NO: 35 and 36 (chain 1 CCUGCGCGCAGAAAAGUUUTT; chain 2 AAACUUUUCUGCGCGCAGGUU; chain 1: DNA at AGT, 2'-fluoro at CU, [invAb] at 5' end, 3' end, backbone not given here; chain 2: sugars from the 5' end rrrfffffffmfmfmfmmmmm, backbone not given here)”, the “% KD Human” value (STAT1 human mRNA) was 91% and the “% KD Mouse” value (STAT1 mouse mRNA) was 33%.
With “25362-DC: STAT1 siNA duplex, human target site 222; modified strands SEQ ID NO: 61 and 62 (chain 1 CUCGAGAGCUGUCUAGGUUTT; chain 2 AACCUAGACAGCUCUCGAGUU; chain 1: DNA at AGT, 2'-fluoro at CU, [invAb] at 5' end, 3' end, backbone not given here; chain 2: sugars from the 5' end rrrffmmmfmmfffffmmmmm, backbone not given here)” the “% KD Human” value (STAT1 human mRNA) was 87% and the “% KD Mouse” value (STAT1 mouse mRNA) was 45%.
With “25355-DC: STAT1 siNA duplex, human target site 1126; modified strands SEQ ID NO: 47 and 48 (chain 1 CUGCAGAACUGGUUCACUATT; chain 2 UAGUGAACCAGUUCUGCAGUU; chain 1: DNA at AGT, 2'-fluoro at CU, [invAb] at 5' end, 3' end, backbone not given here; chain 2: sugars from the 5' end rrrfmmmffmmffffmfmmmm, backbone not given here)” the “% KD Human” value (STAT1 human mRNA) was 90% and the “% KD Mouse” value (STAT1 mouse mRNA) was 35%.
“25354-DC: STAT1 siNA duplex, human target site 678; modified strands SEQ ID NO: 45 and 46 (chain 1 GAAGGAAGAAAGGAAAAUUTT; chain 2 AAUUUUCCUUUCUUCCUUCUU; chain 1: sugars from the 5' end d17 f2 d2, [invAb] at 5' end, 3' end, backbone not given here; chain 2: sugars from the 5' end r3 f16 m2, backbone not given here)” was tested, and the “% KD Human” value (STAT1 human mRNA) was 91% and the “% KD Mouse” value (STAT1 mouse mRNA) was 80%.
In the case of “25363-DC: STAT1 siNA duplex, human target site 480; modified strands SEQ ID NO: 63 and 64 (chain 1 GGAGCACGCUGCCAAUGAUTT; chain 2 AUCAUUGGCAGCGUGCUCCUU; chain 1: DNA at AGT, 2'-fluoro at CU, [invAb] at 5' end, 3' end, backbone not given here; chain 2: sugars from the 5' end rrrmffmmfmmfmfmffffmm, backbone not given here)”, the “% KD Human” value (STAT1 human mRNA) is reported as 83% and the “% KD Mouse” value (STAT1 mouse mRNA) is reported as 72%.
For “25371-DC: STAT1 siNA duplex, human target site 432; modified strands SEQ ID NO: 79 and 80 (chain 1 CAUGGAAAUCAGACAGUACTT; chain 2 GUACUGUCUGAUUUCCAUGUU; chain 1: DNA at AGT, 2'-fluoro at CU, [invAb] at 5' end, 3' end, backbone not given here; chain 2: sugars from the 5' end rrrffmfffmmfffffmfmmm, backbone not given here)”, the “% KD Human” value (STAT1 human mRNA) was 89% and the “% KD Mouse” value (STAT1 mouse mRNA) was 85%.
For “25352-DC: STAT1 siNA duplex, human target site 540; modified strands SEQ ID NO: 41 and 42 (chain 1 GCUGGAUGAUCAAUAUAGUTT; chain 2 ACUAUAUUGAUCAUCCAGCUU; chain 1: DNA at AGT, 2'-fluoro at CU, [invAb] at 5' end, 3' end, backbone not given here; chain 2: sugars from the 5' end rrrmfmffmmffmfffmmfmm, backbone not given here)”, the “% KD Human” value (STAT1 human mRNA) was 91% and the “% KD Mouse” value (STAT1 mouse mRNA) was 34%.
“25366-DC: STAT1 siNA duplex, human target site 965; modified strands SEQ ID NO: 69 and 70 (chain 1 UGCUUGACAAUAAGAGAAATT; chain 2 UUUCUCUUAUUGUCAAGCAUU; chain 1: DNA at AGT, 2'-fluoro at CU, [invAb] at 5' end, 3' end, backbone not given here; chain 2: sugars from the 5' end rrrfffffmffmffmmmfmmm, backbone not given here)” was tested, and the “% KD Human” value (STAT1 human mRNA) was 88% and the “% KD Mouse” value (STAT1 mouse mRNA) was 86%.
